# Test results from patent US20240158446A1, “CYCLIC COMPOUND HAVING SELECTIVE INHIBITORY ACTION ON KRAS OVER HRAS AND NRAS” (CHUGAI SEIYAKU KABUSHIKI KAISHA, priority 2021, published 2024).
# How the values were obtained:
# [1] = biological target: GDP-bound HRAS wild-type protein (Homo sapiens, UniProt P01112); assay: Binding to HRAS by surface plasmon resonance (SPR), Single Cycle Kinetics; conditions: SPR; GDP-bound HRAS wild-type protein vs GDP-bound KRAS wild-type protein; KD ratio class
# [2] = biological target: GDP-bound KRAS wild-type protein (Homo sapiens, UniProt P01116); assay: Binding to KRAS by surface plasmon resonance (SPR), Single Cycle Kinetics; conditions: SPR, Single Cycle Kinetics, 1:1 binding model; GDP-bound KRAS wild-type protein; read-out: KRAS KD
# Sequence of GDP-bound KRAS wild-type protein (P01116 whole entry): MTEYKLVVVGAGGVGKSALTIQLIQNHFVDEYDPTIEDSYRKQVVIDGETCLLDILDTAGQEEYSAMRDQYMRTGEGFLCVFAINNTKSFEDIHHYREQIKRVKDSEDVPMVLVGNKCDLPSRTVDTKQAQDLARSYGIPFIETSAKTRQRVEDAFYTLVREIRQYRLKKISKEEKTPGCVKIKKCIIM
# [3] = biological target: GDP-bound NRAS wild-type protein (Homo sapiens, UniProt P01111); assay: Binding to NRAS by surface plasmon resonance (SPR), Single Cycle Kinetics; conditions: SPR; GDP-bound NRAS wild-type protein vs GDP-bound KRAS wild-type protein; KD ratio class
# Sequence of GDP-bound NRAS wild-type protein (P01111 whole entry): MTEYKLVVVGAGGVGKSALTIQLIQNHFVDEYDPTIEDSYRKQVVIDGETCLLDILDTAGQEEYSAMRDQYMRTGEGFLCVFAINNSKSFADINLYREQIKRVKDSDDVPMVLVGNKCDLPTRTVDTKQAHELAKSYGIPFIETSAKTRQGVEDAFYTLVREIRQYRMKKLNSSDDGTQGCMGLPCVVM
# [4] = tested on: human lung cancer strain NCI-H441;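 also: cell proliferation inhibition after four days measured by CellTiter-Glo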
# Sequence of GDP-bound HRAS wild-type protein (P01112 whole entry): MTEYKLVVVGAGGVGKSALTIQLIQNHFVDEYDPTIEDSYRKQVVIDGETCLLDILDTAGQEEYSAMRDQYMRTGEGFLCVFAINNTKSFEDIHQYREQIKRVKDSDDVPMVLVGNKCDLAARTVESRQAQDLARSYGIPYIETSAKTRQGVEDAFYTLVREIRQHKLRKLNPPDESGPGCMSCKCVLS
Structure (SMILES),Kd [2] [nM],IC50 [4] [nM],HRAS/KRAS (ratio of KD value for HRAS to KD value for KRAS) [1],NRAS/KRAS (ratio of KD value for NRAS to KD value for KRAS) [3]
CCO[C@@H]1C[C@H]2C(=O)NC3(CCC3)C(=O)N(C)[C@@H](C3CCCC3)C(=O)N(C)[C@H](C(=O)N(C)C)CC(=O)N(C)[C@@H](CC3CC3)C(=O)N[C@@H]([C@@H](C)CC)C(=O)N(C)CC(=O)N(C)[C@H]3C/C=C\CCN(C3=O)[C@@H](Cc3ccc(F)cc3)C(=O)N(C)CC(=O)N[C@@H](CCc3ccc(Cl)c(Cl)c3)C(=O)N2C1 [PP1478],0.34,102,A (a compound having 10 or more and less than 20 is denoted as A),A (a compound having 10 or more and less than 20 is denoted as A)
CCO[C@@H]1C[C@H]2C(=O)NC3(CCC3)C(=O)N(C)[C@@H](C3CCCC3)C(=O)N(C)[C@H](C(=O)N(C)C)CC(=O)N(C)[C@@H](CC3CC3)C(=O)N[C@@H]([C@@H](C)CC)C(=O)N(C)CC(=O)N(C)[C@H]3C/C=C\CCN(C3=O)[C@@H](Cc3ccc(F)cc3)C(=O)N(C)CC(=O)N[C@@H](CCc3cc(F)c(Cl)c(F)c3)C(=O)N2C1 [PP1479],0.49,140,B (a compound having 3 or more and less than 10 is denoted as B),A (a compound having 10 or more and less than 20 is denoted as A)
CCO[C@@H]1C[C@H]2C(=O)NC3(CCC3)C(=O)N(C)[C@@H](C3CCCC3)C(=O)N(C)[C@H](C(=O)N(C)C)CC(=O)N(C)[C@@H](CC(C)C)C(=O)N[C@@H]([C@@H](C)CC)C(=O)N(C)CC(=O)N(C)[C@H]3C/C=C\CCN(C3=O)[C@@H](Cc3ccc(F)cc3C)C(=O)N(C)CC(=O)N[C@@H](CCc3cc(F)c(Cl)c(F)c3)C(=O)N2C1 [PP1481],1.2,14.8,B (a compound having 3 or more and less than 10 is denoted as B),A (a compound having 10 or more and less than 20 is denoted as A)
CCO[C@@H]1C[C@H]2C(=O)NC3(CCC3)C(=O)N(C)[C@@H](C3CCCC3)C(=O)N(C)[C@H](C(=O)N(C)C)CC(=O)N(C)[C@@H](CC3CC3)C(=O)N[C@@H]([C@@H](C)CC)C(=O)N(C)CC(=O)N(C)[C@H]3C/C=C\CCN(C3=O)[C@@H](Cc3ccc(C)cc3)C(=O)N(C)CC(=O)N[C@@H](CCc3cc(F)c(Cl)c(F)c3)C(=O)N2C1 [PP1484],0.45,59.3,A (a compound having 10 or more and less than 20 is denoted as A),A (a compound having 10 or more and less than 20 is denoted as A)
CCO[C@@H]1C[C@H]2C(=O)NC3(CCC3)C(=O)N(C)[C@@H](C3CCCC3)C(=O)N(C)[C@H](C(=O)N(C)C)CC(=O)N(C)[C@@H](CC3CC3)C(=O)N[C@@H]([C@@H](C)CC)C(=O)N(C)CC(=O)N(C)[C@H]3C/C=C\CCN(C3=O)[C@@H](Cc3ccc(C)cc3)C(=O)N(C)CC(=O)N[C@@H](CCc3ccc(Cl)c(Cl)c3)C(=O)N2C1 [PP1485],0.28,30.5,A (a compound having 10 or more and less than 20 is denoted as A),A (a compound having 10 or more and less than 20 is denoted as A)
CCO[C@@H]1C[C@H]2C(=O)NC3(CCC3)C(=O)N(C)[C@@H](C3CCCC3)C(=O)N(C)[C@H](C(=O)N(C)C)CC(=O)N(C)[C@@H](CC3CCCC3)C(=O)N[C@@H]([C@@H](C)CC)C(=O)N(C)CC(=O)N(C)[C@H]3C/C=C\CCN(C3=O)[C@@H](Cc3ccc(C)cc3)C(=O)N(C)CC(=O)N[C@@H](CCc3cc(F)c(Cl)c(F)c3)C(=O)N2C1 [PP1486],0.46,15,A (a compound having 10 or more and less than 20 is denoted as A),A (a compound having 10 or more and less than 20 is denoted as A)
"CCO[C@@H]1C[C@H]2C(=O)NC3(CCC3)C(=O)N(C)[C@@H](C3CCCC3)C(=O)N(C)[C@H](C(=O)N(C)C)CC(=O)N(C)[C@@H](CC3CC3)C(=O)N[C@@H]([C@@H](C)CC)C(=O)N(C)CC(=O)N(C)[C@H]3C/C=C\CCN(C3=O)[C@@H](Cc3ccc(F)cc3)C(=O)N(C)CC(=O)N[C@@H](CCc3cc(F)c(C(F)(F)F)c(F)c3)C(=O)N2C1 [PP1529, (2S,8S,12R,14S,20S,23S,27S,30S,36S,38Z)-20-cyclopentyl-27-(cyclopropylmethyl)-8-[2-[3,5-difluoro-4-(trifluoromethyl)phenyl]ethyl]-12-ethoxy-2-[(4-fluorophenyl)methyl]-N,N,4,19,22,26,32,35-octamethyl-30-[(1S)-1-methylpropyl]-3,6,9,15,18,21,25,28,31,34,42-undecaoxo-spiro[1,4,7,10,16,19,22,26,29,32,35-undecazatricyclo[34.5.1.0^10,14]dotetracont-38-ene-17,1′-cyclobutane]-23-carboxamide]",0.081,30.2,B (a compound having 3 or more and less than 10 is denoted as B),A (a compound having 10 or more and less than 20 is denoted as A)

# The next lines start with results.
Kd [2] [nM],IC50 [4] [nM],Structure (SMILES),HRAS/KRAS (ratio of KD value for HRAS to KD value for KRAS) [1],NRAS/KRAS (ratio of KD value for NRAS to KD value for KRAS) [3]
0.92,85.8,CCO[C@@H]1C[C@H]2C(=O)NC3(CCC3)C(=O)N(C)[C@@H](C3CCCC3)C(=O)N(C)[C@H](C(=O)N(C)C)CC(=O)N(C)[C@@H](CC(C)C)C(=O)N[C@@H]([C@@H](C)CC)C(=O)N(C)CC(=O)N(C)[C@H]3C/C=C\CCN(C3=O)[C@@H](Cc3ccc(F)cc3C)C(=O)N(C)CC(=O)N[C@@H](CCc3ccc(Cl)c(Cl)c3)C(=O)N2C1 [PP1480],B (a compound having 3 or more and less than 10 is denoted as B),A (a compound having 10 or more and less than 20 is denoted as A)
0.45,76.4,CCO[C@@H]1C[C@H]2C(=O)NC3(CCC3)C(=O)N(C)[C@@H](C3CCCC3)C(=O)N(C)[C@H](C(=O)N(C)C)CC(=O)N(C)[C@@H](CC(C)C)C(=O)N[C@@H]([C@@H](C)CC)C(=O)N(C)CC(=O)N(C)[C@H]3C/C=C\CCN(C3=O)[C@@H](Cc3ccc(F)cc3)C(=O)N(C)CC(=O)N[C@@H](CCc3ccc(Cl)c(Cl)c3)C(=O)N2C1 [PP1482],B (a compound having 3 or more and less than 10 is denoted as B),A (a compound having 10 or more and less than 20 is denoted as A)
0.51,90.3,CCO[C@@H]1C[C@H]2C(=O)NC3(CCC3)C(=O)N(C)[C@@H](C3CCCC3)C(=O)N(C)[C@H](C(=O)N(C)C)CC(=O)N(C)[C@@H](CC(C)C)C(=O)N[C@@H]([C@@H](C)CC)C(=O)N(C)CC(=O)N(C)[C@H]3C/C=C\CCN(C3=O)[C@@H](Cc3ccc(F)cc3)C(=O)N(C)CC(=O)N[C@@H](CCc3cc(F)c(Cl)c(F)c3)C(=O)N2C1 [PP1483],B (a compound having 3 or more and less than 10 is denoted as B),A (a compound having 10 or more and less than 20 is denoted as A)
0.11,3.4,CCCC[C@H]1C(=O)N[C@@H]([C@@H](C)CC)C(=O)N(C)CC(=O)N(C)[C@H]2C/C=C\CCN(C2=O)[C@@H](Cc2ccc(C(F)(F)F)cc2)C(=O)N(C)CC(=O)N[C@@H](CCc2cc(F)c(C(F)(F)F)c(F)c2)C(=O)N2C[C@H](OCC)C[C@H]2C(=O)NC2(CCC2)C(=O)N(C)[C@@H](C2CCCC2)C(=O)N(C)[C@H](C(=O)N(C)CC)CC(=O)N1C [PP1558],B (a compound having 3 or more and less than 10 is denoted as B),A (a compound having 10 or more and less than 20 is denoted as A)
0.064,2.7,CCCC[C@H]1C(=O)N[C@@H]([C@@H](C)CC)C(=O)N(C)CC(=O)N(C)[C@H]2C/C=C\CCN(C2=O)[C@@H](Cc2ccc(C(F)(F)F)cc2)C(=O)N(C)CC(=O)N[C@@H](CCc2ccc(C(F)(F)F)c(OC)c2)C(=O)N2C[C@H](OCC)C[C@H]2C(=O)NC2(CC(C)(C)C2)C(=O)N(C)[C@@H](C2CCCC2)C(=O)N(C)[C@H](C(=O)N(C)C)CC(=O)N1C [PP1561],B (a compound having 3 or more and less than 10 is denoted as B),A (a compound having 10 or more and less than 20 is denoted as A)
0.046,1.7,CCO[C@@H]1C[C@H]2C(=O)NC3(CC(C)(C)C3)C(=O)N(C)[C@@H](C3CCCC3)C(=O)N(C)[C@H](C(=O)N(C)C)CC(=O)N(C)[C@@H](CC(C)C)C(=O)N[C@@H]([C@@H](C)CC)C(=O)N(C)CC(=O)N(C)[C@H]3C/C=C\CCN(C3=O)[C@@H](Cc3ccc(C(F)(F)F)cc3)C(=O)N(C)CC(=O)N[C@@H](CCc3ccc(C(F)(F)F)c(OC)c3)C(=O)N2C1 [PP1562],A (a compound having 10 or more and less than 20 is denoted as A),A (a compound having 10 or more and less than 20 is denoted as A)
0.073,3,CCO[C@@H]1C[C@H]2C(=O)NC3(CC(C)(C)C3)C(=O)N(C)[C@@H](C3CCCC3)C(=O)N(C)[C@H](C(=O)N(C)C)CC(=O)N(C)[C@@H](CC3CCC3)C(=O)N[C@@H]([C@@H](C)CC)C(=O)N(C)CC(=O)N(C)[C@H]3C/C=C\CCN(C3=O)[C@@H](Cc3ccc(C(F)(F)F)cc3)C(=O)N(C)CC(=O)N[C@@H](CCc3ccc(C(F)(F)F)c(OC)c3)C(=O)N2C1 [PP1564],A (a compound having 10 or more and less than 20 is denoted as A),A (a compound having 10 or more and less than 20 is denoted as A)
